For 25 compounds, efficacy and AC50 cell viability results are on record in the supplement of paper PMC10290057.

The subject of assay [1] is HCT116. The experiment in a line: efficacy (fitted maximal change in viability relative to DMSO control); higher = less cytotoxic (negative = loss of viability). The following applies: 48 h.
The test system of assay [2] is HCT116. The experiment in a line: AC50 cell viability (CellTiter-Glo); higher = less potent. The following applies: 48 h.
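For AC50 cell viability (CellTiter-Glo) in this document: HCT116 colorectal carcinoma cells screened at five concentrations per compound, luminescent viability scaled between DMSO wells and empty wells on each plate, curves fitted per compound.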
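For efficacy (fitted maximal change in viability relative to DMSO control) in this document: Luminescence-based viability readout, five doses per compound, normalized against on-plate DMSO and empty-well controls, followed by dose-response curve fitting for every drug.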

On to `O=C(Nc1ccc(OC(F)(F)Cl)cc1)c1cnc(N2CC[C@@H](O)C2)c(-c2ccn[nH]2)c1` [Asciminib], for which the efficacy in the assay on HCT116 [1] is -80.6%. Further, the AC50 cell viability in the assay with HCT116 [2] is 20.9 µM.

For `O=C(Nc1ccc([S+](=O)([O-])N2CCOCC2)cc1)c1cc(Cl)ccc1N[S+](=O)([O-])c1ccc(Cl)s1` [Ataciguat], in the assay on HCT116 [1], the efficacy is -76%. Besides, the AC50 cell viability in the assay on HCT116 [2] turned out to be 23.5 µM.

Turning to `CCCC1(CCC)CCC2(CCN(CCCN(CC)CC)C2)CC1` [Atiprimod], the efficacy in the assay on HCT116 [1] was -99.3%. Moreover, the AC50 cell viability in the assay on HCT116 [2] is 2.63 µM.

As for `CC(C)c1c(C(=O)Nc2ccccc2)c(-c2ccccc2)c(-c2ccc(F)cc2)n1CC[C@@H](O)C[C@@H](O)CC(=O)O` [Atorvastatin calcium], the efficacy in the assay on HCT116 [1] was -63.9%. In the assay with HCT116 [2], this compound had an AC50 cell viability of 12.9 µM.

Turning to `COc1ccc(CC2c3cc(OC)c(OC)cc3CC[N+]2(C)CCC(=O)OCCCCCOC(=O)CC[N+]2(C)CCc3cc(OC)c(OC)cc3C2Cc2ccc(OC)c(OC)c2)cc1OC` (stereo not given) [Atracurium besylate], the efficacy in the assay on HCT116 [1] is -77.8%. Further, the AC50 cell viability with HCT116 [2] amounted to 23.5 µM.

With `COc1cc(F)ccc1-c1ncnc(Nc2cccc(C[S+](C)(=N)[O-])c2)n1` (stereo not given) [Atuveciclib], in the assay with HCT116 [1], the efficacy is -68%. Also, in the assay on HCT116 [2], the AC50 cell viability turned out to be 0.468 µM.

As for `CC[P](CC)(CC)=[Au][S][C@@H]1O[C@H](COC(C)=O)[C@@H](OC(C)=O)[C@H](OC(C)=O)[C@H]1OC(C)=O` [Auranofin], the efficacy in the assay with HCT116 [1] was -100%. The AC50 cell viability in the assay on HCT116 [2] amounted to 2.63 µM.

For the compound `CCN1CCN(C(=O)Cc2ccc(Nc3ncc(F)c(Nc4ccc(C(=O)Nc5ccccc5Cl)cc4)n3)cc2)CC1` [Aurora A Inhibitor I], the efficacy in the assay on HCT116 [1] was -105%. This compound also showed an AC50 cell viability with HCT116 [2] of 7.42 µM.

Turning to `CC(C)c1cc(C(C)C)c(CC(=O)N[S+](=O)([O-])Oc2c(C(C)C)cccc2C(C)C)c(C(C)C)c1` [Avasimibe], the efficacy in the assay with HCT116 [1] is -82.3%. The AC50 cell viability in the assay with HCT116 [2] came to 14.8 µM.

Regarding `C=CC(=O)Nc1cccc(Oc2nc(Nc3ccc(N4CCN(C)CC4)c(F)c3)nc3[nH]ccc23)c1` [Avitinib], the efficacy in the assay on HCT116 [1] is -123%. The compound further yielded an AC50 cell viability with HCT116 [2] of 13.2 µM.

In the case of `CNC(=O)c1ccccc1Sc1ccc2c(/C=C/c3ccccn3)n[nH]c2c1` [Axitinib], in the assay on HCT116 [1], the efficacy is -80.4%. In the assay with HCT116 [2], this compound registered an AC50 cell viability of 14.8 µM.

On to `Cn1cnc([N+](=O)[O-])c1Sc1ncnc2nc[nH]c12` [Azathioprine], for which, in the assay on HCT116 [1], the efficacy was -83.7%. Also, the AC50 cell viability with HCT116 [2] came to 2.63 µM.

For the compound `COc1ccc(N(C)c2nc(C)nc3ccccc23)cc1` [Azixa], the efficacy in the assay on HCT116 [1] is -64.3%. Further, in the assay on HCT116 [2], the AC50 cell viability turned out to be 0.00372 µM.

As for `CCc1cc(/C(C)=N/OCc2ccc(C3CCCCC3)c(C(F)(F)F)c2)ccc1CN1CC(C(=O)O)C1` [BAF-312], the efficacy in the assay with HCT116 [1] is -66.2%. In the assay on HCT116 [2], this compound yielded an AC50 cell viability of 20.9 µM.

Regarding `Cc1nc2cnc3ccc(C#Cc4cccnc4)cc3c2n1-c1ccc(C(C)(C)C#N)cc1` [BAG-956], the efficacy with HCT116 [1] is -92.6%. The AC50 cell viability with HCT116 [2] stood at 1.18 µM.

Turning to `COc1ccc(-c2cc3nccn3c(Nc3ncccc3C(N)=O)n2)cc1OC` [BAY61-3606], the efficacy in the assay with HCT116 [1] was -66.9%. Besides, the AC50 cell viability in the assay on HCT116 [2] turned out to be 4.17 µM.

For `Nc1nc(-c2nn(Cc3ccccc3F)c3ncccc23)ncc1C1CC1` [BAY-41-2272], the efficacy in the assay on HCT116 [1] is -51.2%. In addition, the AC50 cell viability in the assay with HCT116 [2] worked out at 1.05 µM.

With `CC1=NN=C(C[C@@H]2\C=C(C3=CC=C(Cl)C=C3)/C4=CC=CC=C4[N]5C(=NN=C25)C)O1` [BAY-356], the efficacy in the assay with HCT116 [1] was -72.7%. The AC50 cell viability in the assay on HCT116 [2] is 0.934 µM.

Take `Cc1c(NC(=O)c2cc(C(N)=O)nc3cc(F)ccc23)c(C(F)(F)F)nn1Cc1ccc(C#N)cc1` [BAY-876]: the efficacy in the assay on HCT116 [1] was -89.3%. The same compound gave an AC50 cell viability with HCT116 [2] of 4.68 µM.

On to `Cn1c(=O)n(-c2ccc(C(C)(C)C#N)cc2)c2c3cc(-c4cnc5ccccc5c4)ccc3ncc21` [BEZ-235], for which the efficacy with HCT116 [1] was -60.5%. In addition, the AC50 cell viability in the assay on HCT116 [2] is 0.135 µM.

Consider `CC1(C)C(=O)N(c2ccc(C#N)c(C(F)(F)F)c2)C(=S)N1Cc1ccc(-c2c[nH]nn2)cc1` [BG-15a], for which the efficacy in the assay on HCT116 [1] is -68.8%. Moreover, the AC50 cell viability in the assay with HCT116 [2] turned out to be 20.9 µM.

Regarding `C=CC(=O)N1CCC(C2CCNc3c(C(N)=O)c(-c4ccc(Oc5ccccc5)cc4)nn32)CC1` (stereo not given) [BGB-3111], the efficacy in the assay on HCT116 [1] is -62.4%. In the assay on HCT116 [2], the AC50 cell viability is 18.6 µM.

Take `O=[N+]([O-])c1cnc(Sc2nnc(O)n2-c2ccc3c(c2)OCCO3)s1` [BI-78D3]: in the assay with HCT116 [1], the efficacy is -94.7%. The same compound had an AC50 cell viability in the assay on HCT116 [2] of 11.8 µM.

With `COC1=C(CN(C)C)C=C(OC)C(=C1)C/2=C/N(C)C(=O)C3=C2C=CN=C3` [BI-9564], the efficacy in the assay with HCT116 [1] was -71.5%. Moreover, the AC50 cell viability with HCT116 [2] worked out at 14.8 µM.

For the compound `CCCCCCOC(=O)/N=C(/N)c1ccc(NCc2nc3cc(C(=O)N(CCC(=O)OCC)c4ccccn4)ccc3n2C)cc1` [BIBR-1048], in the assay on HCT116 [1], the efficacy was -59.4%. Moreover, the AC50 cell viability with HCT116 [2] was 18.6 µM.
